Source: patent US7354936B2, “2-phenylpyran-4-one derivatives” (Almirall AG, priority 2000, dated 2008)

Key:
COX-1 = target: T1, COX-1 (Homo sapiens, UniProt P23219); assay: COX-1 activity in human whole blood (TXB2, calcium ionophore A23187); assay type: cell-based; conditions: for IC50: 1 h at 37° C., TXB2 by ELISA
T1 construct: Fresh blood from healthy volunteers; from tissue; host or cells: human whole blood (heparinized) from healthy volunteers
Description: (§1) COX-1 and COX-2 Activities in Human Whole Blood
For the COX-1 activity determination, 500:1 aliquots of blood were incubated with either 5:1 vehicle (dimethylsulphoxide) or 5:1 of a test compound for 1 h at 37° C. Calcium ionophore A23187 (25:M) was added 20 min before stopping the incubation. Plasma was separated by centrifugation (10 min at 13000 rpm) and kept at −30° C. until TXB2 levels were measured using an enzyme immunoassay kit (ELISA).
The effect of the compounds was evaluated by incubating each compound at five to six different concentrations with triplicate determinations. IC50 values were obtained by non-linear regression using InPlot, GraphPad software on an IBM computer.

COX-2 = target: T2, COX-2 (Homo sapiens, UniProt P35354); assay: COX-2 activity in human whole blood (PGE2, LPS-induced); assay type: cell-based; conditions: for IC50: LPS 24 h at 37° C., PGE2 by ELISA; for Ratio COX-1/COX-2: ratio of COX-1/COX-2 IC50 values
T2 construct: incubated in the presence of LPS (10:g/ml) for 24 h at 37° C. in order to induce the COX-2 expression; from tissue; host or cells: human whole blood (heparinized) from healthy volunteers, LPS-stimulated for 24 h
T2 sequence (P35354 18-604): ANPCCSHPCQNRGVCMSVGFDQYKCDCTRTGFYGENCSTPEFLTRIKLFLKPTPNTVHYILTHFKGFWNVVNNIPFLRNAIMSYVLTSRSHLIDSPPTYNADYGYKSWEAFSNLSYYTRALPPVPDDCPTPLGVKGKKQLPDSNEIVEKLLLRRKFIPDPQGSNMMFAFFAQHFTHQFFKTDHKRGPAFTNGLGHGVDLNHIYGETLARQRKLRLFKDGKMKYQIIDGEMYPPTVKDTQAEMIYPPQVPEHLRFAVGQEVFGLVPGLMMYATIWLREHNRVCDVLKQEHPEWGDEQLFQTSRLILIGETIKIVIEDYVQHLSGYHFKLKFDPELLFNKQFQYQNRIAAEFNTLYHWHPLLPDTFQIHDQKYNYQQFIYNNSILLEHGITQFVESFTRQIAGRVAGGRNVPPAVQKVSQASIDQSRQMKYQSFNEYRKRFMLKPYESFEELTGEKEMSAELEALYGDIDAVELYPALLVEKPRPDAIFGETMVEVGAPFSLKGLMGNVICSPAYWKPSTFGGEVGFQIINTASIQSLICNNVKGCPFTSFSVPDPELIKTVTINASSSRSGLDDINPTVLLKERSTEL
Description: as §1
Plasma was separated by centrifugation (10 min at 13000 rpm) and kept at −30° C. until PGE2 levels were measured using an enzyme immunoassay kit (ELISA). […] IC50 values were obtained by non-linear regression using InPlot, GraphPad software on an IBM computer.

T1 sequence (P23219 24-599): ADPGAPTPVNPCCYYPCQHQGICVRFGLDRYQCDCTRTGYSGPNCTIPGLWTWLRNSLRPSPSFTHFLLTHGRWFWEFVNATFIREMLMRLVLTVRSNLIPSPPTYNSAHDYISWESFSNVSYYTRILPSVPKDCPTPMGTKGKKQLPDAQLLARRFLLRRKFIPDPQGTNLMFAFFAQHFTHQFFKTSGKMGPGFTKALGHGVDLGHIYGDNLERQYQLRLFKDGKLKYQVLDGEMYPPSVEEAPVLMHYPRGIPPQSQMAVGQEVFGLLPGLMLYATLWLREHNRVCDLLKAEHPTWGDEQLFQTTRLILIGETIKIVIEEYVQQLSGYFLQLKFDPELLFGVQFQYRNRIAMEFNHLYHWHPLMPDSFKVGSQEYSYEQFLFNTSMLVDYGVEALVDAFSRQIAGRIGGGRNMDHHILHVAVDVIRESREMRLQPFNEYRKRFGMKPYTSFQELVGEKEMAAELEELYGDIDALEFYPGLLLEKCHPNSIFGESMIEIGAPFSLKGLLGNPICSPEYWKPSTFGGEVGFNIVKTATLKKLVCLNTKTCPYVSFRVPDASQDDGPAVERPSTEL

CC(=O)OCc1cc(=O)c(Oc2ccc(F)cc2)c(-c2ccc(S(C)(=O)=O)cc2)o1 [Example 30, Acetic acid [5-(4-fluorophenoxy)-6-(4-methanesulfonylphenyl)-4-oxo-4H-pyran-2-yl]methyl ester]
IC50 (COX-1): 50.3 µM | IC50 (COX-2): 140 nM | Ratio COX-1/COX-2 (COX-2): 359 | melting point: 180 °C

CC(=O)OCc1cc(=O)c(Oc2ccc(Cl)cc2)c(-c2ccc(S(C)(=O)=O)cc2)o1 [Example 31, Acetic acid [5-(4-chlorophenoxy)-6-(4-methanesulfonylphenyl)-4-oxo-4H-pyran-2-yl]methyl ester]
inhibition at 100 µM (COX-1; read-out: COX-1 inhibition at 100 μM, at 100 μM): 17% | IC50 (COX-2): 1100 nM | Ratio COX-1/COX-2 (COX-2): >90 | melting point: 115 °C

CS(=O)(=O)c1ccc(-c2oc(C(=O)O)cc(=O)c2Oc2ccc(F)cc2F)cc1 [Example 32, 5-(2,4-Difluorophenoxy)-6-(4-methanesulfonylphenyl)-4-oxo-4H-pyran-2-carboxylic acid]
IC50 (COX-1): 450 µM | IC50 (COX-2): 420 nM | Ratio COX-1/COX-2 (COX-2): 1070 | melting point: 245 °C

Cc1ccc(Oc2c(-c3ccc(S(C)(=O)=O)cc3)oc(C(F)F)cc2=O)cc1 [Example 36, 6-(1,1-Difluoromethyl)-2-(4-methanesulfonylphenyl)-3-(4-methylphenoxy)pyran-4-one]
IC50 (COX-1): 28.5 µM | IC50 (COX-2): 97 nM | Ratio COX-1/COX-2 (COX-2): 294 | melting point: 160 °C
